Experiments:
[1] = xn = mol fraction of the nth substance listed; conditions: 100 kPa, Liquid; for mass density: Vibrating tube method; for speed of sound: Frequency=3 MHz, Sing-around technique in a fixed-path interferometer
[2] = refractive index (Na D-line) (dimensionless); xn = mol fraction of the nth substance listed; conditions: 100 kPa, Liquid, Standard Abbe refractometry

CCCCCCCCN1CCCC1=O [N-octyl-2-pyrrolidone] + CCCCn1cc[n+](C)c1.F[B-](F)(F)F
Conditions | mass density, 318.15 K [kg/m3] | mass density, 323.15 K [kg/m3] | refractive index, 298.15 K | refractive index, 303.15 K | refractive index, 308.15 K | refractive index, 313.15 K | refractive index, 318.15 K | refractive index, 323.15 K | speed of sound, 323.15 K [m/s]
[1], x2 = 0 | 903.83 | 900.17 | – | – | – | – | – | – | 1364
[1], x2 = 0.1084 | 931.01 | 927.39 | – | – | – | – | – | – | 1372.3
[1], x2 = 0.196 | 951.01 | 947.4 | – | – | – | – | – | – | 1376.7
[1], x2 = 0.3023 | 977.05 | 973.44 | – | – | – | – | – | – | 1382.7
[1], x2 = 0.4087 | 1005.86 | 1002.29 | – | – | – | – | – | – | 1391.8
[1], x2 = 0.5064 | 1031.07 | 1027.48 | – | – | – | – | – | – | 1400.8
[1], x2 = 0.6027 | 1060.13 | 1056.67 | – | – | – | – | – | – | 1415.6
[1], x2 = 0.6981 | 1089.38 | 1085.86 | – | – | – | – | – | – | 1432.2
[1], x2 = 0.7966 | 1118.83 | 1115.32 | – | – | – | – | – | – | 1453.3
[1], x2 = 0.8978 | 1150.62 | 1147.1 | – | – | – | – | – | – | 1478.6
[2], x2 = 0 | – | – | 1.46346 | 1.46152 | 1.45955 | 1.45761 | 1.45564 | 1.45367 | –
[2], x2 = 0.1084 | – | – | 1.46095 | 1.45882 | 1.45675 | 1.45482 | 1.45292 | 1.45088 | –
[2], x2 = 0.196 | – | – | 1.45803 | 1.45622 | 1.45433 | 1.45243 | 1.45054 | 1.44862 | –
[2], x2 = 0.3023 | – | – | 1.45399 | 1.45226 | 1.45051 | 1.44871 | 1.44692 | 1.44512 | –
[2], x2 = 0.4087 | – | – | 1.44986 | 1.4482 | 1.44653 | 1.44484 | 1.44312 | 1.44146 | –
[2], x2 = 0.5064 | – | – | 1.44556 | 1.44392 | 1.4423 | 1.44059 | 1.43894 | 1.43731 | –
[2], x2 = 0.6027 | – | – | 1.44155 | 1.43996 | 1.43842 | 1.43681 | 1.43513 | 1.43346 | –
[2], x2 = 0.6981 | – | – | 1.43713 | 1.43564 | 1.43416 | 1.43266 | 1.43111 | 1.42954 | –
[2], x2 = 0.7966 | – | – | 1.43209 | 1.4307 | 1.42923 | 1.42777 | 1.4263 | 1.42478 | –
[2], x2 = 0.8978 | – | – | 1.42695 | 1.42526 | 1.42379 | 1.4223 | 1.4208 | 1.41935 | –
